Laboratory results: US11878966B2, “Substituted 4-benzyl and 4-benzoyl piperidine derivates” (89BIO LTD, priority 2015, dated 2024)

target: T1, recombinant human baculovirus-expressed GST-tagged FASN (Homo sapiens, UniProt P49327); test: FASN enzyme activity assay: fluorescence-based detection of CoA with CPM; format: biochemical; conditions: 5 nM FASN, 150 μM NADPH, 10 μM acetyl-CoA, 25 μM malonyl-CoA, 90 minutes incubation
T1 construct: GST; host or cells: baculovirus expression system (insect cells implied)
Outline: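 IC50 values were fitted (variable-slope sigmoid) to percent inhibition from CPM fluorescence (390/530 nm) reporting free CoA after a 30 min labelling step. The reaction ran 90 min after malonyl-CoA (25 μM) addition, with 10 μM acetyl-CoA, 150 μM NADPH, 5 nM recombinant GST-FASN, 50 mM HEPES pH 7.5 and 0.5% DMSO.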

T1 sequence (P49327 whole entry): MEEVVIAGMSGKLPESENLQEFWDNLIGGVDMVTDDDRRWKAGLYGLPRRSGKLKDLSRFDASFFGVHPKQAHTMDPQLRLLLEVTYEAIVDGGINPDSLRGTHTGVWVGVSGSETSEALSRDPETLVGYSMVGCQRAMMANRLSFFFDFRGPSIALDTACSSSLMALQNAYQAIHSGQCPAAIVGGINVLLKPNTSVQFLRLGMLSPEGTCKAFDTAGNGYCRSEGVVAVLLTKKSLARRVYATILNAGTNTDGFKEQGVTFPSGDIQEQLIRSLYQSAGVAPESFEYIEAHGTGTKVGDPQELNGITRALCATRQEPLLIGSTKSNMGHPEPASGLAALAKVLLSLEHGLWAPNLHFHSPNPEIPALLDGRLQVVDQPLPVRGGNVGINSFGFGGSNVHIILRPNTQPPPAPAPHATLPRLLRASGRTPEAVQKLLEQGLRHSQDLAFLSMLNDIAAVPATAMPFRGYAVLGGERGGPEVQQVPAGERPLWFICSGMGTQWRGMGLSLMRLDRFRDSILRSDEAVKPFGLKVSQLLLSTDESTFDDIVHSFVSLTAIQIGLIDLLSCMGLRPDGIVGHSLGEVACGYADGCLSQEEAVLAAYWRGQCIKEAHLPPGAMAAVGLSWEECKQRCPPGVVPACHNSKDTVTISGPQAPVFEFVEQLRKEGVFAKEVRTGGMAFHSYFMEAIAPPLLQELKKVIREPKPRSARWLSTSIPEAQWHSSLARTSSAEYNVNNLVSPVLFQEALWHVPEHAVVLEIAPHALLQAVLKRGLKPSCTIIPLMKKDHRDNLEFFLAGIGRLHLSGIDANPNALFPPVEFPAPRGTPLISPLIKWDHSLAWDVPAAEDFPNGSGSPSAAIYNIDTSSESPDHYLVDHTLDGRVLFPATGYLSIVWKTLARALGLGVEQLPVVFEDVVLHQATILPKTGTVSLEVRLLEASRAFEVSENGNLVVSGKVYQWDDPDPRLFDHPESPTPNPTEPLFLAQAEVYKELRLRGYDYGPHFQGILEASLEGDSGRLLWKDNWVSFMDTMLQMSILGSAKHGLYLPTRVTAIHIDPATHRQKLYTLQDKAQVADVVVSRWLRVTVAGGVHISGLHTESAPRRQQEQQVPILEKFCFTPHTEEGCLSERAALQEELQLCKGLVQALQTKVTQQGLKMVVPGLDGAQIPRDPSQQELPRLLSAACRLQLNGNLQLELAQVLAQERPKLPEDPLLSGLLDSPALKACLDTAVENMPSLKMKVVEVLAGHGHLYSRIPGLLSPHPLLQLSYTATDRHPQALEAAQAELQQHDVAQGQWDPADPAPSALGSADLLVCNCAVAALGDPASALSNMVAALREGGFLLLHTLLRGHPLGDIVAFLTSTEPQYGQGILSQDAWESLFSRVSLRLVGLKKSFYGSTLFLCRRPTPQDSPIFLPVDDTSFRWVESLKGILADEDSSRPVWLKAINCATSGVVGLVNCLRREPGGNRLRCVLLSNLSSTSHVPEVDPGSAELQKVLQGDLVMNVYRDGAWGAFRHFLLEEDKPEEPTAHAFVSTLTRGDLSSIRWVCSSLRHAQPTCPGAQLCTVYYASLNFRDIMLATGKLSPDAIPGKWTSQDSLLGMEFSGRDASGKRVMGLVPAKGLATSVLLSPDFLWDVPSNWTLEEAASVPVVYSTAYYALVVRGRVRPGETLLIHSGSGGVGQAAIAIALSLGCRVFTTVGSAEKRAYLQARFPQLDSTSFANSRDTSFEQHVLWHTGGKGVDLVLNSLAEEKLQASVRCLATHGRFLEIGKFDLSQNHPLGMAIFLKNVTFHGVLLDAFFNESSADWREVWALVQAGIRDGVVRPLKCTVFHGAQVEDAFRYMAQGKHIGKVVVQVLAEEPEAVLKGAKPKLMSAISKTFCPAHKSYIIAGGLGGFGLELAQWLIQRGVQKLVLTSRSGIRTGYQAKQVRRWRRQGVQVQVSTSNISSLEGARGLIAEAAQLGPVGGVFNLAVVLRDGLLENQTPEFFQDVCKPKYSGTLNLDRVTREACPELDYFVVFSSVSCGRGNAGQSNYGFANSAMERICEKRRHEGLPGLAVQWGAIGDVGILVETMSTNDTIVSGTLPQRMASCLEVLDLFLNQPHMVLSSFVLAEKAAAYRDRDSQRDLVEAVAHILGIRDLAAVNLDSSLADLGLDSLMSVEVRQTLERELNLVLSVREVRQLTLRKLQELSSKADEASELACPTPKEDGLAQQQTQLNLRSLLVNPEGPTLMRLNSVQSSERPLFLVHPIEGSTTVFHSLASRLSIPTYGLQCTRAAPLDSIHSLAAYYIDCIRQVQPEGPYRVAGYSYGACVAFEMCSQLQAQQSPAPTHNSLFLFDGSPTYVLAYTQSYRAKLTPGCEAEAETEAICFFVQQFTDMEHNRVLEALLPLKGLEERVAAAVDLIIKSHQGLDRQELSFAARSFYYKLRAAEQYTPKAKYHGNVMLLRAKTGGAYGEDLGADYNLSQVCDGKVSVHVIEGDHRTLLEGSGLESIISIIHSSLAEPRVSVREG

SMILES | IC50
Cc1c(-c2ccc(CC3(F)CCN(C(=O)[C@H]4CCCO4)CC3)cc2)ccc2nccn12 [Example 97, (R)-(4-fluoro-4-(4-(5-methylimidazo[1,2-a]pyridin-6-yl)benzyl)piperidin-1-yl)(tetrahydrofuran-2-yl)methanone] | 1 to 99 nM
CCC(=O)N1CCC(C(F)(F)c2ccc(-c3cnc4ccccc4c3C)cc2)CC1 [Example 9, 1-(4-{difluoro-[4-(4-methyl-quinolin-3-yl)-phenyl]-methyl}-piperidin-1-yl)-propan-1-one] | 100 to 999 nM
COCCOC(c1ccc(-c2ccc3c(C)nccc3c2)cc1)C1CCN(C(=O)[C@H]2CCCO2)CC1 (mixture of isomers) [Example 82, (4-{(2-Methoxyethoxy)-[4-(1-methylisoquinolin-6-yl)-phenyl]-methyl}-piperidin-1-yl)-(R)-tetrahydrofuran-2-yl-methanone] | 1 to 99 nM
O=C(C1CC1)N1CC=C(Cc2ccc(-c3ccc4occc4c3)cc2)CC1 [Example 180, (4-(4-(benzofuran-5-yl)benzyl)-5,6-dihydropyridin-1(2H)-yl)(cyclopropyl)methanone] | 1000 to 10000 nM
Cc1nccc2cc(-c3ccc(CC4CCN(C(=O)[C@H]5CCCO5)CC4)cc3)ccc12 [Example 37, {4-[4-(1-methylisoquinolin-6-yl)-benzyl]-piperidin-1-yl}-(R)-tetrahydro-furan-2-yl-methanone] | 1 to 99 nM
Cc1c(-c2ccc(C(F)(F)C3CCN(C(=O)C4CC4)CC3)cc2)cnc2ccccc12 [Example 10, Cyclopropyl-(4-{difluoro-[4-(4-methyl-quinolin-3-yl)-phenyl]-methyl}-piperidin-1-yl)-methanone] | 100 to 999 nM
CC(C)(c1ccc(-c2cnc3ccccc3c2)cc1)C1CCN(C(=O)[C@H]2CCCO2)CC1 [Example 203] | 1 to 99 nM
Cc1c(-c2ccc(CC3(F)CCN(C(=O)[C@H]4CCCO4)CC3)cc2)ccc2cccnc12 [Example 199, (R)-(4-fluoro-4-(4-(8-methylquinolin-7-yl)benzyl)piperidin-1-yl)(tetrahydrofuran-2-yl)methanone] | 1 to 99 nM
COc1c(-c2ccc(C(C)C3CCN(C(=O)[C@H]4CCCO4)CC3)cc2)ccc2cccnc12 (mixture of isomers) [Example 69, (4-{1-[4-(8-Methoxyquinolin-7-yl)-phenyl]-ethyl}-piperidin-1-yl)-(R)-tetrahydrofuran-2-yl-methanone] | 1 to 99 nM
CCC(=O)N1CC=C(Cc2ccc(-c3ccc4cnccc4c3)cc2)CC1 [Example 166, 1-(4-(4-(isoquinolin-6-yl)benzyl)-5,6-dihydropyridin-1(2H)-yl)propan-1-one] | 100 to 999 nM
O=C(C1CC1)N1CCC(C2(c3ccc(-c4ccc5cccnc5c4)cc3)CC2)CC1 [Example 45, Cyclopropyl-{4-[1-(4-quinolin-7-yl-phenyl)-cyclopropyl]-piperidin-1-yl}-methanone] | 100 to 999 nM
Cc1c(-c2ccc(C(OCCN3CCCC3)C3CCN(C(=O)[C@H]4CCCO4)CC3)cc2)ccc2cccnc12 (stereo partly drawn) [Example 89, {4-[[4-(8-Methylquinolin-7-yl)-phenyl]-(2-pyrrolidin-1-yl-ethoxy)-methyl]-piperidin-1-yl}-(R)-tetrahydrofuran-2-yl-methanone] | 1 to 99 nM
CCC(=O)N1CCC(C#N)(Cc2ccc(-c3ccc4cccnc4c3OC)cc2)CC1 [Example 92, 4-[4-(8-methoxyquinolin-7-yl)-benzyl]-1-propionylpiperidine-4-carbonitrile] | 1 to 99 nM
CCC(=O)N1CCC(C(C)c2ccc(-c3ccc4cccnc4c3C)cc2)CC1 (stereo not shown) [Example 62, 1-(4-{1-[4-(8-methylquinolin-7-yl)-phenyl]-ethyl}-piperidin-1-yl)-propan-1-one] | 1 to 99 nM
CCC(=O)N1CCC(C)(Cc2ccc(-c3cnc4ccccc4c3)cc2)CC1 [Example 59, 1-[4-Methyl-4-(4-quinolin-3-yl-benzyl)-piperidin-1-yl]-propan-1-one] | 100 to 999 nM
CCC(=O)N1CCC(C2(c3ccc(-c4ccc5ccncc5c4)cc3)OCCO2)CC1 [Example 116, 1-{4-[2-(4-Isoquinolin-7-yl-phenyl)-1,3-dioxolan-2-yl]-piperidin-1-yl}-propan-1-one] | 1000 to 10000 nM
Cc1c(-c2ccc(CC3=CCN(C(=O)[C@H]4CCCO4)CC3)cc2)cnc2ccccc12 [Example 182, (R)-(4-(4-(4-methylquinolin-3-yl)benzyl)-5,6-dihydropyridin-1(2H)-yl)(tetrahydrofuran-2-yl)methanone] | 1 to 99 nM
CCC(=O)N1CCC(C(C)c2ccc(-c3cnc4ccccc4c3)cc2)CC1 (single isomer, unassigned) [Example 67, 1-{4-[1-(4-Quinolin-3-yl-phenyl)-ethyl]-piperidin-1-yl}-propan-1-one] | 1 to 99 nM
CCC(=O)N1CCC(F)(Cc2ccc(-c3ccc4occc4c3)cc2)CC1 [Example 169, 1-(4-(4-(benzofuran-5-yl)benzyl)-4-fluoropiperidin-1-yl)propan-1-one] | 100 to 999 nM
CCC(=O)N1CCC(C(OCCCN2CCOCC2)c2ccc(-c3ccc4cccnc4c3C)cc2)CC1 (stereo not shown) [Example 85, 1-{4-[[4-(8-Methylquinolin-7-yl)-phenyl]-(3-morpholin-4-yl-propoxy)-methyl]-piperidin-1-yl}-propan-1-one] | 1 to 99 nM

SMILES | IC50
O=C([C@H]1CCCO1)N1CCC(C(F)c2ccc(-c3cnc4ccccc4c3)cc2)CC1 (stereo partly drawn) [Example 8, {4-[Fluoro-(4-quinolin-3-yl-phenyl)-methyl]-piperidin-1-yl}-(R)-tetrahydro-furan-2-yl-methanone] | 1 to 99 nM
CCC(=O)N1CCC(C(=O)c2c(F)cc(-c3ccc4cnccc4c3)cc2F)CC1 [Example 138, 1-[4-(2,6-Difluoro-4-isoquinolin-6-yl-benzoyl)-piperidin-1-yl]-propan-1-one] | 100 to 999 nM
CCCC(c1ccc(-c2cnc3ccccc3c2)cc1)C1CCN(C(=O)CC)CC1 (stereo not shown) [Example 54, 1-{4-[1-(4-Quinolin-3-yl-phenyl)-butyl]-piperidin-1-yl}-propan-1-one] | 1 to 99 nM
CCC(=O)N1CCC(C(CC)(OC)c2ccc(-c3ccc4cccnc4c3)cc2)CC1 (stereo not shown) [Example 216, 1-{4-[1-Methoxy-1-(4-quinolin-7-yl-phenyl)-propyl]-piperidin-1-yl}-propan-1-one] | 1000 to 10000 nM
CCC(=O)N1CCC(C(C)c2ccc(-c3ccc4cccnc4c3OC)cc2)CC1 (stereo not shown) [Example 64, 1-(4-{1-[4-(8-Methoxyquinolin-7-yl)-phenyl]-ethyl}-piperidin-1-yl)-propan-1-one] | 1 to 99 nM
CC(C)C(=O)N1CCC(C(=O)c2ccc(-c3ccc4ncccc4c3)cc2)CC1 [Example 109, 2-Methyl-1-[4-(4-quinolin-6-yl-benzoyl)-piperidin-1-yl]-propan-1-one] | 1000 to 10000 nM
CCC(=O)N1CCC(C(c2ccc(-c3cnc4ccccc4c3)cc2)C(C)C)CC1 (stereo not shown) [Example 61, 1-{4-[2-Methyl-1-(4-quinolin-3-yl-phenyl)-propyl]-piperidin-1-yl}-propan-1-one] | 100 to 999 nM
O=C(C1CC1)N1CCC(F)(Cc2ccc(-c3cnc4ccccc4c3)cc2)CC1 [Example 171, Cyclopropyl(4-fluoro-4-(4-(quinolin-3-yl)benzyl)piperidin-1-yl)methanone] | 1 to 99 nM
CCC(=O)N1CCC(F)(C(O)c2ccc(-c3ccc4cccnc4c3C)cc2)CC1 (stereo not shown) [Example 223] | 1 to 99 nM
Cc1c(-c2ccc(CC3=CCN(C(=O)C4CC4)CC3)cc2)cnc2ccccc12 [Example 192, Cyclopropyl(4-(4-(4-methylquinolin-3-yl)benzyl)-5,6-dihydropyridin-1(2H)-yl)methanone] | 100 to 999 nM
CCC(=O)N1CCC(F)(Cc2ccc(-c3ccc4cnccc4c3)cc2)CC1 [Example 165, 1-(4-fluoro-4-(4-(isoquinolin-6-yl)benzyl)piperidin-1-yl)propan-1-one] | 1 to 99 nM
CCOC(C)(c1ccc(-c2ccc3cccnc3c2)cc1)C1CCN(C(=O)C2CC2)CC1 (stereo not shown) [Example 215, Cyclopropyl-{4-[1-ethoxy-1-(4-quinolin-7-yl-phenyl)-ethyl]-piperidin-1-yl}-methanone] | 100 to 999 nM
O=C(C1CC1)N1CCC(F)(Cc2ccc(-c3cncc4ccccc34)cc2)CC1 [Example 177, Cyclopropyl(4-fluoro-4-(4-(isoquinolin-4-yl)benzyl)piperidin-1-yl)methanone] | 1 to 99 nM
CCOC(=O)N1CCC(C2(c3ccc(-c4ccc5ncccc5c4)cc3)OCCO2)CC1 [Example 101, 4-[2-(4-Quinolin-6-yl-phenyl)-1,3-dioxolan-2-yl]-piperidine-1-carboxylic Acid Ethyl Ester] | 1000 to 10000 nM
O=C(C1CC1)N1CCC(C2(c3ccc(-c4cnc5ccccc5c4)cc3)CC2)CC1 [Example 44, Cyclopropyl-{4-[1-(4-quinolin-3-yl-phenyl)-cyclopropyl]-piperidin-1-yl}-methanone] | 100 to 999 nM
CCC(=O)N1CCC(Cc2ccc(-c3cc4ccccc4cn3)cc2)CC1 [Example 26, 1-[4-(4-Isoquinolin-3-yl-benzyl)-piperidin-1-yl]-propan-1-one] | 1000 to 10000 nM
Cc1c(-c2ccc(CC3(F)CCN(C(=O)[C@H]4CCCO4)CC3)cc2)cnc2ccccc12 [Example 181, (R)-(4-fluoro-4-(4-(4-methylquinolin-3-yl)benzyl)piperidin-1-yl)(tetrahydrofuran-2-yl)methanone] | 1 to 99 nM
CCC(=O)N1CCC(Cc2ccc(-c3ccc4nccn4c3C)cc2)CC1 [Example 94, 1-{4-[4-(5-Methylimidazo[1,2-a]pyridin-6-yl)-benzyl]-piperidin-1-yl}-propan-1-one] | 100 to 999 nM
CCC(=O)N1CCC(C(O)c2ccc(-c3ccc4cccnc4c3)cc2)CC1 (stereo not shown) [Example 125, 1-{4-[Hydroxy-(4-quinolin-7-yl-phenyl)-methyl]-piperidin-1-yl}-propan-1-one] | 1 to 99 nM
CCC(=O)N1CCC(C2(c3ccc(-c4cnc5ccccc5c4)cc3)OCCO2)CC1 [Example 139, 1-{4-[2-(4-Quinolin-3-yl-phenyl)-1,3-dioxolan-2-yl]-piperidin-1-yl}-propan-1-one] | 1 to 99 nM
